Source: US8367710B2, “Bicyclo-substituted pyrazolon azo derivatives, preparation process and pharmaceutical use thereof” (Jiangsu Hengrui Medicine Co. Ltd., priority 2008, dated 2013)

Experiments:
[1] = Pharmacokinetics assay in rats after intragastric administration; assay type: in vivo; conditions: both sexes, Sprague-Dawley, rat, plasma, po, SD rats, 5 mg/Kg; for Vd/F: read-out: Apparent Distribution Volume Vz/F; for CL/F: read-out: Clearance CL/F (converted); for AUC: read-out: Curve Area AUC; for half-life: read-out: Half-Life t½ (converted); for MRT: read-out: Mean Residence Time MRT; for Cmax: read-out: Plasma Conc. Cmax
Protocol: Test Example 1: Pharmacokinetics assay of the compounds of the present disclosure
The pharmacokinetics of the compounds of the present disclosure was studied and evaluated in rats.
The test compound was diluted with 1% sodium carboxymethyl cellulose to 0.5 mg/mL (calculated as the free acid form) of suspension before use.
24 healthy adult SD rats, male and female in half, were divided into […]. After an overnight fast, the rats were administered intragastrically at a dose of 5.0 mg/kg (calculated as the free acid form), at a volume of 10 mL/kg.
24 healthy adult SD rats, male and female in half, were administered intragastrically at a dose of 5.0 mg/kg after an overnight fast. Blood samples (0.2 mL) were taken from eye socket at pre administration and at 0.5, 1.0, 2.0, 3.0, 4.0, 5.0, 6.0, 8.0, 11.0, 14.0, 24.0, 36.0 and 48.0 hours post administration, which were stored in heparinized tubes and centrifuged for 10 minutes at 3,500 rpm. The plasma samples were stored at −20° C. until analysis.
50 μL of rat plasma, obtained at various time points after administration, 20 μL of internal standard solution and 20 μL of a solvent mixture of methanol and water (80:20, v/v) were mixed well, and then 150 μL of methanol was added to result in protein precipitation. Then the mixture was mixed for 1 minute using a vortexer and centrifuged for 10 minutes at 13,000 rpm. 20 μL of the supernatant was analyzed by LC/MS/MS.
50 μL of blank plasma was spiked with a series of standard solutions to produce final concentrations of 1.0, 5.0, 25.0, 50.0, 100.0, 250.0, 500.0 ng/mL, followed by addition of 20 μL of internal standard solution, which was treated according to plasma sample pretreatment protocol. A typical calibration curve equation was obtained with plasma concentration as the abscissa and the chromatographic peak area ratio of sample to internal standard as the ordinate, using weighted least squares method (w=1/x^2) for linear regression.
The compartmental model of pharmacokinetics was fitted for the test compounds and the major pharmacokinetic parameters were calculated in which Cmax and tmax were the actually measured values.

human TPO receptor = biological target: T1, human TPO receptor (Homo sapiens, UniProt P40238); assay: pro-proliferation effect on BAF3-TPOR cell (CCK-8); assay type: cell-based, mouse; conditions: BAF3-TPOR cells, proliferation relative to rhTPO positive control
T1 sequence (P40238 26-635): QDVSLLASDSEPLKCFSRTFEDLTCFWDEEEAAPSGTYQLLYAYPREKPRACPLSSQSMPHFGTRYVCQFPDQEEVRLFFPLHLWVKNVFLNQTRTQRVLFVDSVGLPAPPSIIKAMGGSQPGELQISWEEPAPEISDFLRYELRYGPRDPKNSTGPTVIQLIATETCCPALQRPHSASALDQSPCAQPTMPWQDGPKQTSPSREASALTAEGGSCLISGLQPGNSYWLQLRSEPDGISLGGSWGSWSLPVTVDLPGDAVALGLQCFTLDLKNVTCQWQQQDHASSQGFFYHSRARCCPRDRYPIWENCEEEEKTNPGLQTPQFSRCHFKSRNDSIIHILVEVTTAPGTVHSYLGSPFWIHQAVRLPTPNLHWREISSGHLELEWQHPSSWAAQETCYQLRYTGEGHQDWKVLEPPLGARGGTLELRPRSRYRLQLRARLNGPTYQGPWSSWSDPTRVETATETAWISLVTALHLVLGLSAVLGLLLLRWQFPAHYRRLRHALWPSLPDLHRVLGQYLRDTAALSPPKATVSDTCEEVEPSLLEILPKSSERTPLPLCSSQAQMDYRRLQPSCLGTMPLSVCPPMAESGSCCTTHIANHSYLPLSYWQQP
Protocol: The sequence of primers which contains multi-sites mutation was designed as follows: […]
The E. coli DH5α competent cell was transformed with mutated plasmid, and positive colonies were picked up through ampicillin selection.
(2) BAF3-TPOR stable transfected cell line: the following method was used to construct the BaF3 cell which stably over-expressed functional human TPO receptor. […] The stable transfected cells BAF3-TPOR were selected with G418 (Gibco, US), then incubated with RPMI1640 medium plus 10% FBS (Gibco, US), […] G418, 5 ng/mL, rmIL-3 (Chemicon, US).
(1) Washing cells by centrifugation: a suitable amount of cell suspension was centrifuged at 1000 rpm for 5 minutes, and the supernatant was discarded. 10 mL of cell culture media without containing IL-3 was added. Then the resulting cell suspension was centrifuged at 1000 rpm for 5 minutes, and the supernatant was discarded.
(2) 1 mL of cell culture media without containing IL-3 was added to beat upon them to equality, and the number of a suitable amount of cell suspension was counted after dilution.
(3) According to the result of the cell counting, a cell suspension in a concentration of 100,000 cell/mL was prepared.
(4) 100 μL of cell suspension was transferred to each well of 96-well culture plate, and there were 3 parallel wells, that is, there were a blank control group (B), a negative control group (N), a positive control group of TPO (P) and a test compound group (S).
(5) The test compound was dissolved in DMSO to prepare a 10 mM stock solution, and then the solution was diluted with RPMI 1640 medium into a series of test samples at different concentration: 30 μM, 10 μM, 3 μM, 1 μM, 0.3 μM, 0.1 μM, 0.03 μM, 0.01 μM, 0.003 μM, 0.001 μM.
(6) 10 μL of test compound solution was transferred to each well respectively; 1 μL of rhTPO (10 μg/mL) was added to positive control well.
(7) The plates were incubated in an incubator at 5% CO2 and 37° C. for 24 hours.
(9) OD value was detected at 450 nm by VICTOR3 (Perkin Elmer 1420-120) plate reader.
(1) The proliferation rate was calculated as follows: Rate=[(S−B)/(P−B)]*100%
S: OD value of wells which contains test compound.
B: OD value of blank control wells
P: OD value of positive control wells
(2) The EC50 value was calculated by Origin 7.0 software.

Row | SMILES | EC50 (human TPO receptor) [µM] | other results
1 | CC1=NN(c2ccc3c(c2)CCC3)C(=O)/C1=N\Nc1cccc(-c2cccc(C(=O)O)c2)c1O [Example 1, 2′-Hydroxy-3′-[N′-(1-indan-5-yl-3-methyl-5-oxo-1,5-dihydro-pyrazol-4-ylidene)-hydrazino]-biphenyl-3-carboxylic acid] | – | Vd/F [1]: 0.35 ± 0.18 L/kg; CL/F [1]: 0.049 L/h/kg; AUC [1]: 132 ± 47 µg·h/mL; half-life [1]: 5.39 ± 0.94 h; MRT [1]: 4.96 ± 1.16 h; Cmax [1]: 29.1 ± 11.4 µg/mL
2 | CC1=NN(c2ccc3c(c2)CCCC3)C(=O)/C1=N\Nc1cccc(-c2cccc(C(=O)O)c2)c1O [Example 3, 2′-Hydroxy-3′-{N′-[3-methyl-5-oxo-1-(5,6,7,8-tetrahydro-naphthalen-2-yl)-1,5-dihydro-pyrazol-4-ylidene]-hydrazino}-biphenyl-3-carboxylic acid] | 0.31 | –
3 | CC1=NN(c2ccc3c(c2)CCCC3)C(=O)/C1=N\Nc1cc(F)cc(-c2cccc(C(=O)O)c2)c1O [Example 4, 5′-Fluoro-2′-hydroxy-3′-{N′-[3-methyl-5-oxo-1-(5,6,7,8-tetrahydro-naphthalen-2-yl)-1,5-dihydro-pyrazol-4-ylidene]-hydrazino}-biphenyl-3-carboxylic acid] | 0.283 | –
4 | CC1=NN(c2ccc3c(c2)CC3)C(=O)/C1=N\Nc1cccc(-c2cccc(C(=O)O)c2)c1O [Example 5, 3′-[N′-(1-Bicyclo[4.2.0]octa-1(6),2,4-trien-3-yl-3-methyl-5-oxo-1,5-dihydro-pyrazol-4-ylidene)-hydrazino]-2′-hydroxy-biphenyl-3-carboxylic acid] | 0.354 | –
5 | CC1=NN(c2ccc3c(c2)CCO3)C(=O)/C1=N\Nc1cccc(-c2cccc(C(=O)O)c2)c1O [Example 7, 3′-{N′-[1-(2,3-dihydro-benzofuran-5-yl)-3-methyl-5-oxo-1,5-dihydro-pyrazol-4-ylidene]-hydrazino}-2′-hydroxy-biphenyl-3-carboxylic acid] | 0.265 | –
6 | CC1=NN(c2ccc3c(c2)CCCC3)C(=O)/C1=N\Nc1cc(C)cc(-c2cccc(C(=O)O)c2)c1O [Example 11, 2′-Hydroxy-5′-methyl-3′-{N′-[3-methyl-5-oxo-1-(5,6,7,8-tetrahydro-naphthalen-2-yl)-1,5-dihydro-pyrazol-4-ylidene]-hydrazino}-biphenyl-3-carboxylic acid] | 0.257 | –
7 | CC1=NN(c2ccc3c(c2)CCO3)C(=O)/C1=N\Nc1cc(C)cc(-c2cccc(C(=O)O)c2)c1O [Example 13, 3′-{N′-[1-(2,3-Dihydro-benzofuran-5-yl)-3-methyl-5-oxo-1,5-dihydro-pyrazol-4-ylidene]-hydrazino}-2′-hydroxy-5′-methyl-biphenyl-3-carboxylic acid] | 0.141 | –
8 | CC1=NN(c2ccc3c(c2)CCCC3)C(=O)/C1=N\Nc1cccc(-c2ccc(C(=O)O)o2)c1O [Example 15, 5-(2-Hydroxy-3-{N′-[3-methyl-5-oxo-1-(5,6,7,8-tetrahydro-naphthalen-2-yl)-1,5-dihydro-pyrazol-4-ylidene]-hydrazino}-phenyl)-furan-2-carboxylic acid] | – | Vd/F [1]: 1.36 ± 0.7 L/kg; CL/F [1]: 0.28 L/h/kg; AUC [1]: 23.8 ± 17.3 µg·h/mL; half-life [1]: 3.47 ± 0.79 h; MRT [1]: 4.09 ± 0.99 h; Cmax [1]: 6.63 ± 3.78 µg/mL
9 | CC1=NN(c2ccc3c(c2)C(C)(C)CC3)C(=O)/C1=N\Nc1cc(C)cc(-c2cccc(C(=O)O)c2)c1O [Example 16, 3′-{N′-[1-(3,3-Dimethyl-indan-5-yl)-3-methyl-5-oxo-1,5-dihydro-pyrazol-4-ylidene]-hydrazino}-2′-hydroxy-5′-methyl-biphenyl-3-carboxylic acid] | 0.16 | –
10 | CC1=NN(c2ccc3c(c2)CCC3)C(=O)/C1=N\Nc1cccc(-c2coc(C(=O)O)c2)c1O [Example 31, 4-{2-Hydroxy-3-[N′-(1-indan-5-yl-3-methyl-5-oxo-1,5-dihydro-pyrazol-4-ylidene)-hydrazino]-phenyl}-furan-2-carboxylic acid] | 0.027 | –
11 | CC1=NN(c2ccc3c(c2)CC3)C(=O)/C1=N\Nc1cccc(-c2ccc(C(=O)O)s2)c1O [Example 37, 5-{3-[N′-(1-Bicyclo[4.2.0]octa-1(6),2,4-trien-3-yl-3-methyl-5-oxo-1,5-dihydro-pyrazol-4-ylidene)-hydrazino]-2-hydroxy-phenyl}-thiophene-2-carboxylic acid] | 0.09 | –

Further lines, with some results ahead:

Row | EC50 (human TPO receptor) [µM] | SMILES | other results
12 | 0.089 | CC1=NN(c2ccc3c(c2)C(C)(C)CC3(C)C)C(=O)/C1=N\Nc1cc(C)cc(-c2cccc(C(=O)O)c2)c1O [Example 20, 2′-Hydroxy-5′-methyl-3′-{N′-[3-methyl-5-oxo-1-(1,1,3,3-tetramethyl-indan-5-yl)-1,5-dihydro-pyrazol-4-ylidene]-hydrazino}-biphenyl-3-carboxylic acid] | –
13 | 0.015 | CC1=NN(c2ccc3c(c2)CC3)C(=O)/C1=N\Nc1cccc(-c2ccc(C(=O)O)o2)c1O [Example 22, 5-{3-[N′-(1-Bicyclo[4.2.0]octa-1(6),2,4-trien-3-yl-3-methyl-5-oxo-1,5-dihydro-pyrazol-4-ylidene)-hydrazino]-2-hydroxy-phenyl}-furan-2-carboxylic acid] | –
14 | 0.06 | CC1=NN(c2ccc3c(c2)C(C)(C)CC3(C)C)C(=O)/C1=N\Nc1cccc(-c2ccc(C(=O)O)o2)c1O [Example 25, 5-(2-Hydroxy-3-{N′-[3-methyl-5-oxo-1-(1,1,3,3-tetramethyl-indan-5-yl)-1,5-dihydro-pyrazol-4-ylidene]-hydrazino}-phenyl)-furan-2-carboxylic acid] | –
15 | 0.05 | CC1=NN(c2ccc3c(c2)C(C)CC3)C(=O)/C1=N\Nc1cccc(-c2ccc(C(=O)O)o2)c1O (stereo not shown) [Example 44, 5-(2-Hydroxy-3-{N′-[3-methyl-1-(3-methyl-indan-5-yl)-5-oxo-1,5-dihydro-pyrazol-4-ylidene]-hydrazino}-phenyl)-furan-2-carboxylic acid] | –
